We go through 1 compound from patent publication US8987316B2, “Isocyanate and isothiocyanate compounds for cancer treatment” (priority 2011, dated 2015).

Where only a bound is given, the exact number is not on record here.

One series concerns MAXF-401 xenograft tumor. Description: Dose-dependent anti-tumor activity in the MAXF-401 xenograft tumor model. The format is in vivo. The procedure: (§1) Breast tumors (MAXF 401) were implanted subcutaneously into the rear members of the mice aged 10 weeks. The increase in the volume of the individual tumors was measured using microcallipers, and the size of the tumor was calculated according to the formula a*b^2/2 (where a is the largest diameter of the tumor and b is the vertical axis). When the tumor volume had increased to 80-120 mm^3, the animals were allocated at random into test groups of in each case 6 animals.
The anti-tumor activity of the substance of Example 2a (sodium salt) was tested in a xenograft tumor panel. Therefore, xenografts of human tumors derived from the mentioned cancers were implanted in nude mice. The implantation and the determination of tumor volumes were carried out as described hereinbefore. Groups of 5 to 8 animals were used. The test compound was administered by ip injection twice weekly in the mentioned doses in the form of the sodium salt as an aqueous solution.
Therein, the anti-tumor activity of the compound of Example 2a (sodium salt) was examined in the MAXF-401 xenograft tumor model in the nude mouse. Subcutaneous implantation of the tumor and the determination of the tumor volume was carried out as described hereinbefore. The test compound was administered by ip injection twice weekly in the mentioned doses in the form of the sodium salt as an aqueous solution over a period of 4 weeks. […] A dose of 100 mg/kg was determined as the threshold dose, ≧200 mg/kg as the ED90 of the anti-tumor activity.

The subject of series [1] is CXF280 xenograft tumor (colon carcinoma). Put plainly: Dose-dependent anti-tumor activity in the CXF280 colon carcinoma xenograft model. The format is in vivo. The protocol:
as §1
The anti-tumor activity of the compound of Example 2a was thereby determined in the CXF280 xenograft tumor model in the nude mouse. Subcutaneous implantation of the tumor and the determination of tumor volumes were carried out as described hereinbefore. The test substance was administered by ip injection twice weekly in the mentioned doses in the form of the sodium salt as an aqueous solution, over a period of 4 weeks. Groups of in each case 8 animals were used.

Another series deals with Breast tumors (MAXF 401). Put plainly: Breast tumor MAXF 401 xenograft in nude mice, T/C value and mortality. The format is in vivo. To be noted: ip twice weekly over 5 weeks. The procedure:
(§2) All the tests were carried out using female nude mice under standard conditions for the keeping of animals with controlled illumination and temperature. The animals were given water and food as desired.
as §1
The test compound (in the form of sodium salts) was dissolved in a saline solution, and 5% Klucel (hydroxypropylcellulose) was added in order to dissolve the test compound in the carrier. The compound was administered by intraperitoneal injection. A volume of 10 ml/kg body weight was injected. […] The tumor volume and the body weight were checked twice weekly, and the relative tumor volumes were calculated as the […]. […]
On the basis of the relative tumor volumes of the animals treated with the test compound compared with the tumor volumes of the controls treated only with the carrier, the T/C values were calculated and were used as the index of anti-tumor activity. […]

Series [2] can be described thus: Necrotic changes in the kidneys of treated animals. The format is in vivo, nude mice. To be noted: affected animals/animals. The procedure:
as §2
No necrotic changes were found in the kidneys of the animals treated with the compound according to the invention. This confirms the excellent tolerability profile of the compounds according to the invention.

Where [3] appears, read: MAXF-401, ip twice weekly over 4 weeks, sodium salt.

`O=C(O)CCOc1ccc(C(=O)c2ccc(N=C=S)cc2)cc1` [Example 2a]: the tolerability entry in the series with MAXF-401 xenograft tumor (MAXF-401, dose range used) is reported as “well tolerated”. In addition, the “tumor response under therapy” value in the series with MAXF-401 xenograft tumor (MAXF-401, dose ≧200 mg/kg) was “remission of the tumors was observed”. In the series with MAXF-401 xenograft tumor (setting [3]), the “ED90 of the anti-tumor activity” value is listed as at least 200 mg/kg and the “threshold dose of the anti-tumor activity” value is on record as 100 mg/kg. Further, the “tumor growth inhibition and remission” value in series [1] (CXF280, dose group of 200 mg/kg and 300 mg/kg) was “complete inhibition of tumor growth and the induction of remissions to obliteration of the tumor”. In series [1] (CXF280, dose range used), the tolerability entry is listed as “well tolerated” and the “weight loss in the animals” value is given as “not associated with a significant weight loss”. For the same compound, in series [1] (CXF280, doses of 100, 200 or 300 mg/kg ip twice weekly over 4 weeks), the anti-tumor action result is “pronounced anti-tumor action”. In series [1] (CXF280, ip twice weekly over 4 weeks), this compound returned an ED90 doses of 200 mg/kg. For the same compound, the T/C value with Breast tumors (MAXF 401) (MAXF 401 breast tumor, sodium salt, ratio of tumor size treated/untreated, 100% would be no activity) is on record as 1.7. Moreover, the Mortality in the series with Breast tumors (MAXF 401) (dead animals/animals in the group) is reported as 0/6. Besides, in series [2], the Acute single-cell necrosis was 0/9 and the Focal tubular necrosis is reported as 0/9.
